Measured values published in article PMC10433847, “The Plasmodium Lactate/H^+ Transporter PfFNT Is Essential and Druggable In Vivo” (Antimicrobial Agents and Chemotherapy, 2023).

Legend:
[1] = system: P. falciparum parasites with PfFNT G21E mutation; experiment: EC50 determination by flow cytometry, drug-selected parasites with PfFNT G21E; assay type: cell-based, Plasmodium falciparum; details: parasites with G21E amino acid change vs 3D7 wild-type
Experimental: (§1) P. falciparum parasites, 3D7, were cultured in RPMI 1640 medium supplemented with 0.5% Albumax with 0+ erythrocytes (University Medical Center Hamburg-Eppendorf, Hamburg, Germany) at a 5% hematocrit at 37°C in an atmosphere containing 5% CO2, 1% O2, and 94% N2 under standard conditions ([31]). To obtain resistant parasites, 50 mL of parasite culture, starting with 5 × 10^8 to 6 × 10^8 parasites, were exposed to 3 × IC50 of either MMV007839 or BH267.meta until parasitemia was established again (around 2 weeks). For sequencing of the fnt gene, genomic DNA from the susceptible and resistant P. falciparum parasite lines was obtained from 5 mL of culture using the QIAamp DNA minikit (Qiagen, Hilden, Germany). The primer sequences used to sequence the entire fnt gene are available in Table S2. To determine the EC50, asynchronous parasites (0.5% to 1% starting parasitemia) were exposed to serial dilutions of the drug and grown for 2 days with one change of medium (including the appropriate concentration of drug), after which the parasitemia was determined using an LSR II FACS (BD Biosciences, Franklin Lakes, NJ) as previously described ([32]). The data were analyzed in GraphPad Prism to determine EC50 values.

[2] = system: P. falciparum parasites with PfFNT V196L mutation; experiment: EC50 determination by flow cytometry, drug-selected parasites with PfFNT V196L; assay type: cell-based, Plasmodium falciparum; details: V196L mutation vs 3D7 wild-type
Experimental: as §1

P. berghei = experiment: 4-day Peters' test, P. berghei-infected mouse malaria model; assay type: in vivo; details: for Activity (%) / Survival / Parasite-free mice (n/total): once per day on 4 consecutive days
Experimental: Finally, we tested BH267.meta in vivo in a P. berghei-infected mouse malaria model. For comparison, we included the established antimalarials chloroquine, mefloquine, and artesunate in the assay. Efficacy was determined by a 4-day Peters’ test ([20], [21]) after oral administration of 30, 10, and 3 mg kg^−1 day^−1 for each antimalarial for four consecutive days. At 4 × 3 mg kg^−1 treatment with BH267.meta, parasitemia was at 0.2% after 4 days, while doses of 10 mg kg^−1 and higher decreased the parasitemia below the limit of quantitation (LOQ) of 0.1%. […] Artesunate yielded lower activity at 4 × 3 mg kg^−1. The average survival after BH267.meta treatment was similar to that after artesunate treatment and ranged from 8.0 d (3 mg kg^−1) to 13.0 d (30 mg kg^−1) due to recurring parasitemia (Table 1).
(§2) In vivo efficacy of BH267.meta against P. berghei was determined as previously described ([20], [21]). Mice were infected with a GFP-transfected P. berghei ANKA strain (donated by A. P. Waters and C. J. Janse, Leiden University, Leiden, The Netherlands), and parasitemia was determined using standard flow cytometry techniques. The detection limit was 0.1%, i.e., 1 parasite in 1,000 erythrocytes. Activity was calculated as the difference between the mean parasitemia for the control and treated groups (n = 3, each) expressed relative to the control group. BH267.meta was dissolved (3 mg kg ^−1 doses) or suspended (all higher doses) in 70/30 Tween 80/ethanol, diluted 10-fold with water, and administered orally as four consecutive daily doses (4, 24, 48, and 72 h after infection). […] different doses of BH267.meta were analyzed (30, 10, and 3 mg kg ^−1). In vivo efficacy against P. falciparum was conducted at The Art of Discovery, Derio, Spain according to the standard assay previously described ([22], [23]). Animal experiments against P. berghei were carried out at the Swiss Tropical and Public Health Institute and adhered to local and national regulations of laboratory animal welfare in Switzerland (awarded permission no. 1731). Protocols are regularly reviewed and revised following approval by the local authority (Veterinäramt Basel Stadt).

P. falciparum = P. falciparum SCID mouse model; assay type: in vivo; details: 50 mg kg−1 d−1 oral for four consecutive days, single animal; LOQ 0.01%
Experimental: In addition to the P. berghei efficacy assessment, we also evaluated BH267.meta in a P. falciparum severe combined immunodeficient (SCID) mouse model as previously described ([22], [23]). Efficacy was assessed following administration of 50 mg kg^−1 d^−1 for four consecutive days to a single animal (Fig. 7).
as §2, with “Animal experiments against P. berghei were carried out at the Swiss Tropical and Public Health Institute and adhered to local and national regulations of laboratory animal welfare in Switzerland (awarded permission no. 1731). Protocols are regularly reviewed and revised following approval by the local authority (Veterinäramt Basel Stadt).” left out

[3] = system: P. falciparum 3D7 blood stages; experiment: Stage-specific action of BH267.meta on synchronized parasites; assay type: cell-based, Plasmodium falciparum; details: IC90 of BH267.meta added at ring, trophozoite or schizont stage
Experimental: Asynchronous cultures containing ~2% schizonts were purified using a 60% Percoll gradient and split into 4 tubes containing […] fresh blood and culture medium, shaken at 37°C for 30 min at 800 rpm to permit newly released merozoites to invade red blood cells, and then transferred into four 5-mL culture dishes. […] The cultures were maintained with daily medium changes and replenishment of IC90 BH267.meta when drug treatment had already commenced for a culture. Giemsa smear and flow cytometry were performed as described previously ([32]), and samples were taken at regular intervals (daily or every 12 h).

[4] = system: P. falciparum parasite culture; set-up: method as in PMID 32816478; details: read-out: effectiveness in parasite culture; cited from earlier work

COc1ccc(C(=O)/C=C(\O)C(F)(F)C(F)(F)F)cc1 [BH296]
reduction in sensitivity compared to the 3D7 parasites [1]: 3.0 fold
fold increased IC50 [2]: 7.4 fold

OC(c1cc(C(F)(F)F)nc2c(C(F)(F)F)cccc12)C1CCCCN1 (centres unmarked) [Mefloquine, mefloquine]
Activity (%) (P. berghei; 3 mg kg−1 day−1 oral): 93.0%
Survival (P. berghei; 3 mg kg−1 day−1 oral): 13.0 days
Activity (%) (P. berghei; 10 mg kg−1 day−1 oral): 99.9%
Parasite-free mice (n/total) (P. berghei; 10 mg kg−1 day−1 oral): 1/5
Survival (P. berghei; 10 mg kg−1 day−1 oral): 21.0 days
Activity (%) (P. berghei; 30 mg kg−1 day−1 oral): 99.9%
Parasite-free mice (n/total) (P. berghei; 30 mg kg−1 day−1 oral): 4/5
Survival (P. berghei; 30 mg kg−1 day−1 oral): 29.1 days

C[C@H]1[C@H](OC(=O)CCC(=O)O)O[C@@H]2O[C@@]3(C)CC[C@H]4[C@H](C)CC[C@@H]1[C@@]24OO3 [Artesunate, artesunate]
Activity (%) (P. berghei; 3 mg kg−1 day−1 oral): 85.0%
Survival (P. berghei; 3 mg kg−1 day−1 oral): 8.8 days
Activity (%) (P. berghei; 10 mg kg−1 day−1 oral): 99.1%
Survival (P. berghei; 10 mg kg−1 day−1 oral): 8.1 days
Activity (%) (P. berghei; 30 mg kg−1 day−1 oral): 99.0%
Survival (P. berghei; 30 mg kg−1 day−1 oral): 9.2 days

CCN(CC)CCCC(C)Nc1ccnc2cc(Cl)ccc12 (centres unmarked) [Chloroquine, chloroquine]
Activity (%) (P. berghei; 3 mg kg−1 day−1 oral): 99.0%
Survival (P. berghei; 3 mg kg−1 day−1 oral): 11.0 days
Activity (%) (P. berghei; 10 mg kg−1 day−1 oral): 99.9%
Survival (P. berghei; 10 mg kg−1 day−1 oral): 15.5 days
Activity (%) (P. berghei; 30 mg kg−1 day−1 oral): 99.9%
Survival (P. berghei; 30 mg kg−1 day−1 oral): 21.2 days

COc1ccc2c(c1)OC(O)(C(F)(F)C(F)(F)F)CC2=O (centres unmarked) [MMV007839]
reduction in sensitivity compared to the 3D7 parasites [1]: 8.4 fold

O=C(/C=C(\O)C(F)(F)C(F)(F)F)c1cccnc1 [BH267.meta]
reduction in sensitivity compared to the 3D7 parasites [1]: no alteration in the response
Activity (%) (P. berghei; 3 mg kg−1 day−1 oral): 99.7%
Survival (P. berghei; 3 mg kg−1 day−1 oral): 8.0 days
Activity (%) (P. berghei; 10 mg kg−1 day−1 oral): 99.9%
Survival (P. berghei; 10 mg kg−1 day−1 oral): 10.7 days
Activity (%) (P. berghei; 30 mg kg−1 day−1 oral): 99.8%
Survival (P. berghei; 30 mg kg−1 day−1 oral): 13.0 days
parasitemia after 4 days (P. berghei; 4 × 3 mg kg−1 oral): 0.2%
efficacy (P. berghei; all tested doses (30, 10, 3 mg kg−1 day−1, 4 days oral)): ≥ 99.7%
parasitemia (P. berghei; doses of 10 mg kg−1 and higher, 4 days oral, LOQ 0.1%): < 0.1%
symptoms or side effects elicited by the compound (P. berghei; mice under treatment, 3-30 mg kg−1 day−1 oral for 4 days): free of symptoms or side effects
activity in mice (P. berghei; mouse malaria models): > 99%
parasitemia (P. falciparum): < 0.01%
blood stage affected [3]: specifically affects the trophozoite stage
EC50 [4]: 240 nM
